# Test results from US20230157952A1, “METHOD FOR IMPROVING THE STABILITY OF A PHARMACEUTICAL COMPOSITION COMPRISING A HIGH PENETRATION DRUG, AND THE PHARMACEUTICAL COMPOSITION OBTAINED THEREFROM” (Techfields Inc., priority 2020, published 2023).
# Experiment: Effect of temperature (and pH) on the stability of the solution (purity)
# Type: physicochemical
# Settings: 7% solution in water
smiles,measurement,setting,value
"CCN(CC)CCOC(=O)Cc1ccccc1Oc1ccc(Cl)cc1Cl.Cl [2-(diethylamino)ethyl 2-(2,4-dichlorophenoxy)benzeneacetate.HCl]",Stability of the solution at a temperature higher than 40° C. and a pH lower than 3 or greater than 6,,not stable
CCN(CC)CCOC(=O)Cc1ccc(C(=O)c2ccc(C)cc2)n1C.Cl,Purity(%) at day 0,"pH 1.0, day 0",97.4 ± 0.4%
same,Purity(%) at day 21 (5° C.),"pH 1.0, day 21, 5° C.",90.3 ± 0.3%
same,Purity(%) at day 21 (25° C.),"pH 1.0, day 21, 25° C.",65.5 ± 0.3%
same,Purity(%) at day 21 (40° C.),"pH 1.0, day 21, 40° C.",9.4 ± 0.3%
same,Purity (%) at day 21 (60° C.),"pH 1.0, day 21, 60° C.",0%
same,Purity(%) at day 0,"pH 2.0, day 0",97.6 ± 0.3%
same,Purity(%) at day 21 (5° C.),"pH 2.0, day 21, 5° C.",93.5 ± 0.3%
same,Purity(%) at day 21 (25° C.),"pH 2.0, day 21, 25° C.",78.1 ± 0.3%
same,Purity(%) at day 21 (40° C.),"pH 2.0, day 21, 40° C.",20.6 ± 0.3%
same,Purity (%) at day 21 (60° C.),"pH 2.0, day 21, 60° C.",0%
same,Purity(%) at day 0,"pH 3.0, day 0",97.8 ± 0.2%
same,Purity(%) at day 21 (5° C.),"pH 3.0, day 21, 5° C.",95.3 ± 0.3%
same,Purity(%) at day 21 (25° C.),"pH 3.0, day 21, 25° C.",91.2 ± 0.2%
same,Purity(%) at day 21 (40° C.),"pH 3.0, day 21, 40° C.",41.7 ± 0.2%
same,Purity (%) at day 21 (60° C.),"pH 3.0, day 21, 60° C.",0%
same,Purity(%) at day 0,"pH 3.7, day 0",97.9 ± 0.2%
same,Purity(%) at day 21 (5° C.),"pH 3.7, day 21, 5° C.",96.4 ± 0.2%
same,Purity(%) at day 21 (25° C.),"pH 3.7, day 21, 25° C.",95.6 ± 0.2%
same,Purity(%) at day 21 (40° C.),"pH 3.7, day 21, 40° C.",56.6 ± 0.2%
same,Purity (%) at day 21 (60° C.),"pH 3.7, day 21, 60° C.",11.5 ± 0.3%
same,Purity(%) at day 0,"pH 4.0, day 0",98.1 ± 0.1%
same,Purity(%) at day 21 (5° C.),"pH 4.0, day 21, 5° C.",96.8 ± 0.1%
same,Purity(%) at day 21 (25° C.),"pH 4.0, day 21, 25° C.",95.7 ± 0.2%
same,Purity(%) at day 21 (40° C.),"pH 4.0, day 21, 40° C.",58.3 ± 0.2%
same,Purity (%) at day 21 (60° C.),"pH 4.0, day 21, 60° C.",23.0 ± 0.3%
same,Purity(%) at day 0,"pH 4.3, day 0",98.1 ± 0.2%
same,Purity(%) at day 21 (5° C.),"pH 4.3, day 21, 5° C.",96.9 ± 0.1%
same,Purity(%) at day 21 (25° C.),"pH 4.3, day 21, 25° C.",95.4 ± 0.1%
same,Purity(%) at day 21 (40° C.),"pH 4.3, day 21, 40° C.",60.1 ± 0.1%
same,Purity (%) at day 21 (60° C.),"pH 4.3, day 21, 60° C.",25.8 ± 0.2%
same,Purity(%) at day 0,"pH 4.6, day 0",97.9 ± 0.1%
same,Purity(%) at day 21 (5° C.),"pH 4.6, day 21, 5° C.",96.3 ± 0.2%
same,Purity(%) at day 21 (25° C.),"pH 4.6, day 21, 25° C.",94.9 ± 0.2%
same,Purity(%) at day 21 (40° C.),"pH 4.6, day 21, 40° C.",55.3 ± 0.2%
same,Purity (%) at day 21 (60° C.),"pH 4.6, day 21, 60° C.",13.5 ± 0.3%
same,Purity(%) at day 0,"pH 5.0, day 0",97.8 ± 0.2%
same,Purity(%) at day 21 (5° C.),"pH 5.0, day 21, 5° C.",96.1 ± 0.2%
same,Purity(%) at day 21 (25° C.),"pH 5.0, day 21, 25° C.",92.1 ± 0.3%
same,Purity(%) at day 21 (40° C.),"pH 5.0, day 21, 40° C.",37.8 ± 0.3%
same,Purity (%) at day 21 (60° C.),"pH 5.0, day 21, 60° C.",1.7 ± 0.3%
same,Purity(%) at day 0,"pH 6.0, day 0",97.6 ± 0.3%
same,Purity(%) at day 21 (5° C.),"pH 6.0, day 21, 5° C.",94.4 ± 0.2%
same,Purity(%) at day 21 (25° C.),"pH 6.0, day 21, 25° C.",79.5 ± 0.3%
same,Purity(%) at day 21 (40° C.),"pH 6.0, day 21, 40° C.",19.5 ± 0.2%
same,Purity (%) at day 21 (60° C.),"pH 6.0, day 21, 60° C.",0%
same,Purity(%) at day 0,"pH 7.0, day 0",97.4 ± 0.3%
same,Purity(%) at day 21 (5° C.),"pH 7.0, day 21, 5° C.",90.0 ± 0.3%
same,Purity(%) at day 21 (25° C.),"pH 7.0, day 21, 25° C.",59.7 ± 0.3%
same,Purity(%) at day 21 (40° C.),"pH 7.0, day 21, 40° C.",5.7 ± 0.3%
same,Purity (%) at day 21 (60° C.),"pH 7.0, day 21, 60° C.",0%
same,Purity(%) at day 0,"pH 8.0, day 0",97.1 ± 0.3%
same,Purity(%) at day 21 (5° C.),"pH 8.0, day 21, 5° C.",78.1 ± 0.3%
same,Purity(%) at day 21 (25° C.),"pH 8.0, day 21, 25° C.",43.6 ± 0.4%
same,Purity(%) at day 21 (40° C.),"pH 8.0, day 21, 40° C.",0%
same,Purity (%) at day 21 (60° C.),"pH 8.0, day 21, 60° C.",0%
